Measured values published in patent US20240285615A1, “MEDICAMENTS COMPRISING GLYCOSIDASE INHIBITORS” (priority 2021, published 2024).
Like-named read-outs stand apart in the source and are kept apart here.

What was measured:
[1] = Summary statistics of steady-state metrics by mathematical modeling of pharmacokinetic data; parameters: species or system human
Excerpt: The following summary statistics of steady-state metrics have been determined based on the above experimental results (“Mathematical Modeling of Pharmacokinetic Data”, D. W. A. Bourne, Routledge, 2018): […]

DSS colitis model = assay: In vivo treatment efficacy on DSS colitis model; conditions: balb/c mice, oral gavage for 21 days, 5% DSS
Method: The dextran sodium sulfate (DSS) is a negatively charged sulfated polysaccharide of approximately 36-50 kDa which induces colitis when administered at 5% (weight/volume) in drinking water for several days (Okayasu I. et al. (1990) Gastroenterology 98:694-702).
Adult (balb/c) mice are randomized and are allowed to a period of acclimatization for one week. After this, the compound of formula (I) or vehicle is administered for 21 days by oral gavage, starting 2 weeks before the DSS treatment (Day −14) and continuing during DSS treatment and until the end of the experiment (Day +9). At Day 0, animals are getting access to a 5% (weight/volume) DSS solution in drinking water until Day +5. The DSS solution is then removed and replaced by drinking water for 4 more days until Day +9. From Day 0 until the end of the experiment […], animals are monitored daily for clinical signs of colitis including bodyweight loss, loose stools and/or diarrhoea and presence of occult or gross blood in the stools. At Day +12 or when animals reach humane endpoints, colons are dissected out, to measure their lengths and observe their content. A sample of distal colon is processed for histopathology. […]
Histological injury and inflammation are scored as described in Gilbert et al (2012) (Gilbert S. et al. (2012) EMBO Mol. Med. 4: 109-124). […]

[2] = Phase 1 Part 1b: food effect, single 300 mg dose fasted/fed, plasma pharmacokinetics; assay type: in vivo, human; conditions: for Tmax / AUC(0-inf) / Cmax / half-life: human, plasma; for AUC(0-inf) / Cmax / half-life: arithmetic mean
Method: The study was a single-centre, randomized, placebo-controlled single- and multiple ascending dose study in healthy male and female (no childbearing potential) volunteers aged 18-80 years. Study objectives were safety, tolerability, food effect and pharmacokinetics. Following identification of safe and tolerable single doses in healthy male subjects aged 18-55 years, separate cohorts were dosed to assess food effect. Furthermore, multiple-dose safety, tolerability, pharmacokinetics, CSF drug levels and pharmacodynamics were assessed in elderly (age 55-80 years) male or healthy non-child-bearing potential female volunteers. [table]

[3] = po, single oral dose 300 mg, fasted condition, healthy elderly subjects
[4] = po, single oral dose 300 mg, fed condition, healthy elderly subjects

## CC(=O)Nc1nnc(N2CCN([C@@H](C)c3ccc4c(c3)OCO4)CC2)s1 [Compound (I)]
[1]; BID 125 mg
  AUC mean: 12589 ng·h/mL
  AUC median: 12388 ng·h/mL
  Cavg mean: 521 ng/mL
  Cavg median: 358 ng/mL
  Cmax mean: 1508 ng/mL
  Cmax median: 1510 ng/mL
  Cmin mean: 139 ng/mL
  Cmin median: 130 ng/mL
[1]; BID 250 mg
  AUC mean: 25763 ng·h/mL
  AUC median: 25044 ng·h/mL
  Cavg mean: 1041 ng/mL
  Cavg median: 720 ng/mL
  Cmax mean: 3027 ng/mL
  Cmax median: 3019 ng/mL
  Cmin mean: 307 ng/mL
  Cmin median: 276 ng/mL
[1]; BID 500 mg
  AUC mean: 52673 ng·h/mL
  AUC median: 52166 ng·h/mL
  Cavg mean: 2178 ng/mL
  Cavg median: 1531 ng/mL
  Cmax mean: 6126 ng/mL
  Cmax median: 6133 ng/mL
  Cmin mean: 654 ng/mL
  Cmin median: 617 ng/mL
[1]; TID 75 mg
  AUC mean: 11072 ng·h/mL
  AUC median: 10887 ng·h/mL
  Cavg mean: 456 ng/mL
  Cavg median: 392 ng/mL
  Cmax mean: 1058 ng/mL
  Cmax median: 1053 ng/mL
  Cmin mean: 109 ng/mL
  Cmin median: 101 ng/mL
[1]; TID 150 mg
  AUC mean: 23204 ng·h/mL
  AUC median: 22835 ng·h/mL
  Cavg mean: 951 ng/mL
  Cavg median: 827 ng/mL
  Cmax mean: 2162 ng/mL
  Cmax median: 2143 ng/mL
  Cmin mean: 257 ng/mL
  Cmin median: 240 ng/mL
[1]; TID 300 mg
  AUC mean: 46780 ng·h/mL
  AUC median: 45869 ng·h/mL
  Cavg mean: 1909 ng/mL
  Cavg median: 1660 ng/mL
  Cmax mean: 4348 ng/mL
  Cmax median: 4298 ng/mL
  Cmin mean: 533 ng/mL
  Cmin median: 499 ng/mL
DSS colitis model
  disease score (body weight loss, stool, blood in feces, general appearance): decrease in the disease score
  tissue inflammation by histology examination: significant decrease of tissue inflammation
[2]
  overall exposure via AUC0-t and AUC0-inf, fed versus fasted: comparable
[2]; fasted state
  difference of exposure (AUC) and Cmax, healthy elderly versus healthy young cohort: 15%
[2]; healthy elderly subjects
  Cmax in fed state as share of Cmax in fasted state: about 60%
  delay of absorption in fed state: approximately 3 hours
  exposure (AUC) in fed state as share of exposure in fasted state: approximately 90%
[2]; oral, fasted condition, read-out: median Tmax
  Tmax: 1 h
[2]; oral, with high-fat, high-calorie meal, read-out: median Tmax
  Tmax: 4 h
[2]; [3]
  AUC(0-inf): 17100 ng·h/mL
  Cmax: 4160 ng/mL
  half-life: 7.27 h
[2]; po, single oral dose 300 mg, fasted condition, healthy elderly subjects, median (min, max), read-out: Tmax
  Tmax: 1 h
[2]; [4]
  AUC(0-inf): 15100 ng·h/mL
  Cmax: 2410 ng/mL
  half-life: 7.06 h
[2]; po, single oral dose 300 mg, fed condition, healthy elderly subjects, median (min, max), read-out: Tmax
  Tmax: 4 h
